# Measured values taken from ChEMBL document CHEMBL5154740, “Novel Aurora A and Protein Kinase C (α, β1, β2, and θ) Multitarget Inhibitors: Impact of Selenium Atoms on the Potency and Selectivity” (J Med Chem, 2022).
# pIC50: −log10 of the molar value.
# Legend:
# [1] = system: 4T1; experiment: Cytotoxicity against mouse 4T1 cells assessed as reduction in cell viability incubated for 96 hrs by MTT assay; type: functional, cell-based; settings: 4T1, 96 h
# [2] = target: Protein kinase C beta type (Homo sapiens) (UniProt P05771); experiment: Inhibition of PKCbeta2 (unknown origin) at 50 nM by Z'LYTE screening method relative to control
# [3] = target: Protein kinase C beta type (Homo sapiens) (UniProt P05771); experiment: Inhibition of PKCbeta1 (unknown origin) at 50 nM by Z'LYTE screening method relative to control
# [4] = system: MDA-MB-231; experiment: Cytotoxicity against human MDA-MB-231/M cells assessed as reduction in cell viability incubated for 96 hrs by MTT assay; type: functional, cell-based; settings: MDA-MB-231, 96 h
# [5] = target: Aurora kinase B (Homo sapiens) (UniProt Q96GD4); experiment: Inhibition of AURB (unknown origin) at 50 nM by Z'LYTE screening method relative to control
# [6] = target: T1, Aurora kinase A (Homo sapiens) (UniProt O14965); experiment: Inhibition of AURA (unknown origin) at 50 nM by Z'LYTE screening method relative to control
# T1 sequence (whole entry): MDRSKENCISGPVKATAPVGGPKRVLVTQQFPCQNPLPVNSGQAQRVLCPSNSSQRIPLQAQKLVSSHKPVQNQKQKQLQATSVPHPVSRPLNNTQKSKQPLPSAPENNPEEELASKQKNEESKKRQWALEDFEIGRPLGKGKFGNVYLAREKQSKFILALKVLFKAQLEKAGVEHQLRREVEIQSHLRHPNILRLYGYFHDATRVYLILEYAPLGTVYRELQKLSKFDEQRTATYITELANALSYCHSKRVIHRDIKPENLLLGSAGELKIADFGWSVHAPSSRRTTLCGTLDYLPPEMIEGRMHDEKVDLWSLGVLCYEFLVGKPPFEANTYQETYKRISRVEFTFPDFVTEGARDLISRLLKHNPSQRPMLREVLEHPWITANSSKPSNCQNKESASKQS
# [7] = target: T2, Protein kinase C theta type (Homo sapiens, UniProt Q04759); experiment: Inhibition of PKCtheta (unknown origin) at 50 nM by Z'LYTE screening method relative to control
# Target sequence in this assay (Q04759 whole entry, looked up): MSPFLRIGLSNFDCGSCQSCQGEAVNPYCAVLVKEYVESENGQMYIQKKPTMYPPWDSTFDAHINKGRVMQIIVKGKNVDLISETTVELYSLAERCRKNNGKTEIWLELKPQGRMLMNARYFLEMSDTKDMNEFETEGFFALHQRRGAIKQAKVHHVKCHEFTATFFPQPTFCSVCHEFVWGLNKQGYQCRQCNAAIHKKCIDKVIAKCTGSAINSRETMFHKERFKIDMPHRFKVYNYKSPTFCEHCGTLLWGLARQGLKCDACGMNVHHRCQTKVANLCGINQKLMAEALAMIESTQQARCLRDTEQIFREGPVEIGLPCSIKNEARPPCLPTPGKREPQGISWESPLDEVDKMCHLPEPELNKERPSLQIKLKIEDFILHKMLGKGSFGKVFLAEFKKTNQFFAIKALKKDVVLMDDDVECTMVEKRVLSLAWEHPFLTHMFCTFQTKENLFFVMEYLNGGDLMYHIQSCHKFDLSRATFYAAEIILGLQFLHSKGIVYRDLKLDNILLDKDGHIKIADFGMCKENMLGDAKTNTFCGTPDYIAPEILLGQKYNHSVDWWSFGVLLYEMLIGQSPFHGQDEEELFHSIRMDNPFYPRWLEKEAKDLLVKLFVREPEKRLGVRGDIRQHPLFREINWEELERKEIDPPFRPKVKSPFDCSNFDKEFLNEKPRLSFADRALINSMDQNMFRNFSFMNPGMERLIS
# [8] = target: Protein kinase C alpha type (Homo sapiens) (UniProt P17252); experiment: Inhibition of PKCalpha (unknown origin) at 50 nM by Z'LYTE screening method relative to control
# [9] = target: Aurora kinase C (Homo sapiens, UniProt Q9UQB9); experiment: Inhibition of AURC (unknown origin)
# [10] = target: T3, Protein kinase C zeta type (Homo sapiens) (UniProt Q05513); experiment: Inhibition of PKCzeta (unknown origin) by Z'LYTE screening method relative to control; settings: concentration not given here
# T3 sequence (whole entry): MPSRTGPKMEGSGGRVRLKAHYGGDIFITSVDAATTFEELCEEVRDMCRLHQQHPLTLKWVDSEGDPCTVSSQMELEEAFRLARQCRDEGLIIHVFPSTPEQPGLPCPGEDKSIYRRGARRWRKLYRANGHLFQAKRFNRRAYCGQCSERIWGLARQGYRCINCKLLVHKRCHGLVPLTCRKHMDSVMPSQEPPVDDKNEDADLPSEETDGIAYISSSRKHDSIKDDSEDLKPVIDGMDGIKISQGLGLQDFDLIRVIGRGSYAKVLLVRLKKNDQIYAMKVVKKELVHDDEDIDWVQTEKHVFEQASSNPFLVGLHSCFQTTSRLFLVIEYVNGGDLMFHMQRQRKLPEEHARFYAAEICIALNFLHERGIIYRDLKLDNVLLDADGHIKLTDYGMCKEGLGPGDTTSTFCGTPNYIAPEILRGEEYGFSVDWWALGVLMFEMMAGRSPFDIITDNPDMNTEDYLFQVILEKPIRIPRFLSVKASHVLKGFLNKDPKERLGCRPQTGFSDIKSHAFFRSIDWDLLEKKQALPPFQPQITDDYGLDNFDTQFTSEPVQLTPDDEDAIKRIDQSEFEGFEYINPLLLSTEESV
# [11] = target: Serine/threonine-protein kinase D3 (Homo sapiens, UniProt O94806); experiment: Inhibition of PKCnu (unknown origin) by IMAP kinase assay
# [12] = target: Protein kinase C epsilon type (Homo sapiens, UniProt Q02156); experiment: Inhibition of PKCepsilon (unknown origin) by IMAP kinase assay
# [13] = target: T2, Protein kinase C theta type; experiment: Inhibition of full length human PKCtheta using 5-FAM-RFARKGSLRQKNV-OH peptide substrate incubated for 30 mins by IMAP kinase assay
# Target sequence in this assay (Q04759 whole entry): as the sequence (Q04759 whole entry, looked up) above
# [14] = target: T4, Serine/threonine-protein kinase D1 (Homo sapiens) (UniProt Q15139); experiment: Inhibition of PKCmu (unknown origin) by Z'LYTE screening method relative to control; settings: concentration not given here
# T4 sequence (whole entry): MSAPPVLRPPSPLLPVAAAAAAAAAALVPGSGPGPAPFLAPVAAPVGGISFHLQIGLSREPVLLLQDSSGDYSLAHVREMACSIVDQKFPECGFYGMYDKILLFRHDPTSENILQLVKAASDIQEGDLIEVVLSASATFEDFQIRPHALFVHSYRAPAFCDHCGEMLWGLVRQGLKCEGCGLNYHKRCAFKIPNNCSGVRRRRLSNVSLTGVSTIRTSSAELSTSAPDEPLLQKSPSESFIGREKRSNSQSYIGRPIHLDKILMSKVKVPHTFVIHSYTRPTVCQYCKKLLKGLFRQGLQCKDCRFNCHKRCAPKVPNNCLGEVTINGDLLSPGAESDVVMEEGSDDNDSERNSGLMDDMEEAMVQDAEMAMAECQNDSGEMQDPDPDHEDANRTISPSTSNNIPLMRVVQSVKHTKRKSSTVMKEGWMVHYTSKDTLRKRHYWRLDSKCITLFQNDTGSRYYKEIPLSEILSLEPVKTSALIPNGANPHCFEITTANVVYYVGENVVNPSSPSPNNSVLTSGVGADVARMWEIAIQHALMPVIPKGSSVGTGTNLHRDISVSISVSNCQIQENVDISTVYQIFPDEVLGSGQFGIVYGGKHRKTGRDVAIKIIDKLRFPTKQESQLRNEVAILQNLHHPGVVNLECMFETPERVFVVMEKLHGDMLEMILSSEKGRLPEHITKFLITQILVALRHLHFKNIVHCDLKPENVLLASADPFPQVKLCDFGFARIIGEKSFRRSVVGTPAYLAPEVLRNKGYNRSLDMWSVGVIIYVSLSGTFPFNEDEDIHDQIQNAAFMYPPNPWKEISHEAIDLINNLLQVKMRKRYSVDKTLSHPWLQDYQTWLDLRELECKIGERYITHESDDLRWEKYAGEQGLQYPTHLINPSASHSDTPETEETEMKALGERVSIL
# [15] = target: Protein kinase C beta type (Homo sapiens) (UniProt P05771); experiment: Inhibition of PKCbeta2 (unknown origin) by Z'LYTE screening method relative to control; settings: concentration not given here
# [16] = target: Protein kinase C alpha type (Homo sapiens) (UniProt P17252); experiment: Inhibition of PKCalpha (unknown origin) by Z'LYTE screening method relative to control; settings: concentration not given here
# [17] = target: Protein kinase C beta type (Homo sapiens) (UniProt P05771); experiment: Inhibition of PKCbeta1 (unknown origin) by Z'LYTE screening method relative to control; settings: concentration not given here
# [18] = target: T5, Protein kinase C epsilon type (Homo sapiens) (UniProt Q02156); experiment: Inhibition of PKCepsilon (unknown origin) by Z'LYTE screening method relative to control; settings: concentration not given here
# T5 sequence (whole entry): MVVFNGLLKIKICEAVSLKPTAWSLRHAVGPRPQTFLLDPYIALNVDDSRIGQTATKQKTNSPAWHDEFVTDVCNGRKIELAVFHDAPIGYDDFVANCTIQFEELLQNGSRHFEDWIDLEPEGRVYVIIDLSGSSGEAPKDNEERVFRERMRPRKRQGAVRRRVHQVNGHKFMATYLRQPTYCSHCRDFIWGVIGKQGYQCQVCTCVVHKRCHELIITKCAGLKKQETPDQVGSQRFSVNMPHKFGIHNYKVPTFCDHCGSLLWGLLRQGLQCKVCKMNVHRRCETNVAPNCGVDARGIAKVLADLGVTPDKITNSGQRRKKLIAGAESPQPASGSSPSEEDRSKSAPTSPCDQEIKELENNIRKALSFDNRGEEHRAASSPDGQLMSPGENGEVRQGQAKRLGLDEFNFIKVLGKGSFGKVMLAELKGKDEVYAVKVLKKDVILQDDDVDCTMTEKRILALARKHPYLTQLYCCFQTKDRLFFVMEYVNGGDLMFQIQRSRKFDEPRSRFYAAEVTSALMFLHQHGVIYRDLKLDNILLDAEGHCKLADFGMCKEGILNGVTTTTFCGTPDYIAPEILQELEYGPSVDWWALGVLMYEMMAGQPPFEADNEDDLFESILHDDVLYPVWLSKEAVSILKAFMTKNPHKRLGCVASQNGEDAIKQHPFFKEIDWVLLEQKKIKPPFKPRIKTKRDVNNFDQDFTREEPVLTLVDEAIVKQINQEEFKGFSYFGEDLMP
# [19] = target: T6, Serine/threonine-protein kinase D3 (Homo sapiens) (UniProt O94806); experiment: Inhibition of PKCnu (unknown origin) by Z'LYTE screening method relative to control; settings: concentration not given here
# T6 sequence (whole entry): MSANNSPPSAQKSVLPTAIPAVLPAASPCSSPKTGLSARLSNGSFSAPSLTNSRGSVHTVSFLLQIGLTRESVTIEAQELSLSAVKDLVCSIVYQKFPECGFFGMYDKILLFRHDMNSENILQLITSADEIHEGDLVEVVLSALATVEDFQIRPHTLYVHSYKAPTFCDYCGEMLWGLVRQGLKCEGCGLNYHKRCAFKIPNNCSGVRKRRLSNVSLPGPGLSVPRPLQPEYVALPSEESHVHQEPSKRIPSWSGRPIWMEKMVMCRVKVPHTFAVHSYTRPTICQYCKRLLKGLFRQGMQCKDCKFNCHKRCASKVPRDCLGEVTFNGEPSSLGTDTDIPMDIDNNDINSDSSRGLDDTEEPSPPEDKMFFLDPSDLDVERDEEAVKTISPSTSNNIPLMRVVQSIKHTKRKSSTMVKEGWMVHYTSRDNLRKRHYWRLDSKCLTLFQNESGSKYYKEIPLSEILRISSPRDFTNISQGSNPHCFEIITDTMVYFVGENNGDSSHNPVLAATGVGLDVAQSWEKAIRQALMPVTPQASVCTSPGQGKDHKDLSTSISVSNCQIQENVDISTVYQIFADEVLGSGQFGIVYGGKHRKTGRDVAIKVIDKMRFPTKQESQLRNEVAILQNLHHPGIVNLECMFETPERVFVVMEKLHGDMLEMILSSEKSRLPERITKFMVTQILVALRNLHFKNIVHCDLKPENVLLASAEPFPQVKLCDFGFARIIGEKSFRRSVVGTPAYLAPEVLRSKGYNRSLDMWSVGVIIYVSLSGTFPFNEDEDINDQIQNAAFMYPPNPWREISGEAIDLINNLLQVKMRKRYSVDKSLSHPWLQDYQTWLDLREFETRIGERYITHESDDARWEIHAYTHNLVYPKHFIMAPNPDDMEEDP
# [20] = target: Proto-oncogene tyrosine-protein kinase receptor Ret (Homo sapiens) (UniProt P07949); experiment: Inhibition of RET (unknown origin) by Z'LYTE screening method relative to control; settings: concentration not given here
# [21] = target: Protein kinase C eta type (Homo sapiens, UniProt P24723); experiment: Inhibition of PKCeta (unknown origin) by IMAP kinase assay
# Chain of Protein kinase C eta type (P24723 whole entry): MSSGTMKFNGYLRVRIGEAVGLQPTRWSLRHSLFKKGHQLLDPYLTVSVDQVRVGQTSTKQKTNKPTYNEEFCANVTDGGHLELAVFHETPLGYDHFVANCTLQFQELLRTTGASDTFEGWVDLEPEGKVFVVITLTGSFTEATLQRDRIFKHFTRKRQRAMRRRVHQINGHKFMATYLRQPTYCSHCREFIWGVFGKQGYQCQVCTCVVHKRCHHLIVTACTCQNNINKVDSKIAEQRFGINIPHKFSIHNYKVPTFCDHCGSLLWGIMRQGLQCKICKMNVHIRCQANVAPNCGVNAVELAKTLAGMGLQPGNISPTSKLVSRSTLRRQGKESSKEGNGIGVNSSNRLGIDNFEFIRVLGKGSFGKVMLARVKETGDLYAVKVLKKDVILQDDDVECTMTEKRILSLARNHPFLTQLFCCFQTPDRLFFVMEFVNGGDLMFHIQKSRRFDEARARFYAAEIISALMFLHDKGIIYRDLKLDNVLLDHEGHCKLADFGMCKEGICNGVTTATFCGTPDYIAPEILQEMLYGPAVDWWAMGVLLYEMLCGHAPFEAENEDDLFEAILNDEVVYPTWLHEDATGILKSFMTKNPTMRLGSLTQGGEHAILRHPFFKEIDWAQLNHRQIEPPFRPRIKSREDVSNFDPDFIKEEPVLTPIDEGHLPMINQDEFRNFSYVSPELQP
# Chain of Protein kinase C beta type (Homo sapiens) (P05771 2-671 limits assumed): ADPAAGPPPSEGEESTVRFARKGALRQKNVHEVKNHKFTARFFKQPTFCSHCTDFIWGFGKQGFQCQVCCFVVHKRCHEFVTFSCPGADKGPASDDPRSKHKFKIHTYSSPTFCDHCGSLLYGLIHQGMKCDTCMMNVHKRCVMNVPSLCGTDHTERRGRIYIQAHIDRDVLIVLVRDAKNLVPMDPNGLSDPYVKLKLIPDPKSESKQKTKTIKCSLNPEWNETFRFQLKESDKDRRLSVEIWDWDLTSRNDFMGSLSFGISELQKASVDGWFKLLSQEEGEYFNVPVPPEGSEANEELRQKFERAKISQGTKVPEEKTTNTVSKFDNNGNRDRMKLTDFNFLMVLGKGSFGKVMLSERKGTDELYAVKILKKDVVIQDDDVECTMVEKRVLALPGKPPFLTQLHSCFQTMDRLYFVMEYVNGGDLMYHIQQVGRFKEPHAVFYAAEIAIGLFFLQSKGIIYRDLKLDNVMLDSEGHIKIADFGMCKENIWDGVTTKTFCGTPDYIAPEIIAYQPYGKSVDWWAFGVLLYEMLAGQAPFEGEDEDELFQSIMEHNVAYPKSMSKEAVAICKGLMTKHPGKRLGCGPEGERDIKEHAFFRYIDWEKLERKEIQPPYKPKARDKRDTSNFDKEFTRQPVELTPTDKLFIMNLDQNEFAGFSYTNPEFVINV
# Chain of Aurora kinase B (Homo sapiens) (Q96GD4 whole entry): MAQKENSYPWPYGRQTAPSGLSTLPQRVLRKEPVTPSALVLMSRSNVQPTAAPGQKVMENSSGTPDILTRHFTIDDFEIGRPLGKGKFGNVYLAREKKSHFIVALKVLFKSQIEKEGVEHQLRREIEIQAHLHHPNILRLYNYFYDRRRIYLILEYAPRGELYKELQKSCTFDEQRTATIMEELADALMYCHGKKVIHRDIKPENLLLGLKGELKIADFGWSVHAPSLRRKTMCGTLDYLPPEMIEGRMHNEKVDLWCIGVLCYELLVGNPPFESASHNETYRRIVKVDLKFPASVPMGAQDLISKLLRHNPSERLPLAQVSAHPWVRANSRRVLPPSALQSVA
# Chain of Proto-oncogene tyrosine-protein kinase receptor Ret (Homo sapiens) (P07949 whole entry): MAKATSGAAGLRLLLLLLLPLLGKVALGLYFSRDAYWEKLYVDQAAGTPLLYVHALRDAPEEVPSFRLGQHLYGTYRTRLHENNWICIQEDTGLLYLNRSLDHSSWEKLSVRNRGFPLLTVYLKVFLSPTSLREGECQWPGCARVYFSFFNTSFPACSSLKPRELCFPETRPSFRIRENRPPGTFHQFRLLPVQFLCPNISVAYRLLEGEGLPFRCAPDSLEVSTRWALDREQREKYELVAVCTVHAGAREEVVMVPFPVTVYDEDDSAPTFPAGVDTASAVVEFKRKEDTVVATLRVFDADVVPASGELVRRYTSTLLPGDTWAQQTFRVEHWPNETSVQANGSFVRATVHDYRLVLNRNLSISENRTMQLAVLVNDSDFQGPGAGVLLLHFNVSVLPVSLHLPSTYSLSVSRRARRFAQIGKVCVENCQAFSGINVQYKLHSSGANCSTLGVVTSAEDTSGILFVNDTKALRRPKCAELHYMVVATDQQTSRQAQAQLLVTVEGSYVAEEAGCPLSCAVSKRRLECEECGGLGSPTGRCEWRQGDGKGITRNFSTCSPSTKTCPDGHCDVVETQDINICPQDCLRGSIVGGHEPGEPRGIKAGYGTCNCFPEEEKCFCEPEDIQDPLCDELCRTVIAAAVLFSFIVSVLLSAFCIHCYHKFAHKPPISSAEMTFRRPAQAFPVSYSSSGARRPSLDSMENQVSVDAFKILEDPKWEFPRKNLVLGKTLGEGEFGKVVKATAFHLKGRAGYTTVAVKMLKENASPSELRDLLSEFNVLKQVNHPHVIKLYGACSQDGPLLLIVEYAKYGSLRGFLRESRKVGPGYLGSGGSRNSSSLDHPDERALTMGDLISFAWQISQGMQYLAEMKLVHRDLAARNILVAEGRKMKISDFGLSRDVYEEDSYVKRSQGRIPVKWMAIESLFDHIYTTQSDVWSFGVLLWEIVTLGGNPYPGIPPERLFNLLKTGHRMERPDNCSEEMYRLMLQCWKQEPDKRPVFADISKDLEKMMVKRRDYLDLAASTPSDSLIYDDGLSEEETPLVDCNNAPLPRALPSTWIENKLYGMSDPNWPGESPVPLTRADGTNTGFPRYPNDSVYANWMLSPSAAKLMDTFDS
# Chain of Aurora kinase C (Q9UQB9 whole entry): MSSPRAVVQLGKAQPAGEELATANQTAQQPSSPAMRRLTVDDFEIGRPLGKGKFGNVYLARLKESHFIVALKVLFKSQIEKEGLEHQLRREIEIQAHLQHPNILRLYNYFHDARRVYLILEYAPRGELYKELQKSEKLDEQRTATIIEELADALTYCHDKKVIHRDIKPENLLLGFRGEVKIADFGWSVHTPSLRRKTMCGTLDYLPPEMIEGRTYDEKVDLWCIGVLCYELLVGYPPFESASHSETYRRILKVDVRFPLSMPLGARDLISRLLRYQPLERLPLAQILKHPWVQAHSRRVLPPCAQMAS
SMILES,inhibition [2] [%],inhibition [3] [%],inhibition [5] [%],inhibition [6] [%],inhibition [7] [%],inhibition [8] [%],inhibition [15] [%],inhibition [16] [%],inhibition [17] [%],pIC50 [1],pIC50 [4],other results
O=C(Nc1cccc(Cl)c1)Nc1ncc(CCNc2ncnc3ccsc23)s1 [SNS-314],,,,,,,,,,,,pIC50 [9]: 8.52
Cc1cc(Nc2cc(N3CCN(C)CC3)nc(Sc3ccc(NC(=O)C4CC4)cc3)n2)n[nH]1,,,,,,,2,8,6,,,inhibition [20]: 62%
O=C(N[C@@H]1CNCCC[C@H]1OC(=O)c1cc(O)c(C(=O)c2c(O)cccc2C(=O)O)c(O)c1)c1ccc(O)cc1 [BALANOL],,,,,,,,,,,,pIC50 [21]: 8.40

# Further lines, with some results ahead:
inhibition [2] [%],inhibition [3] [%],inhibition [5] [%],inhibition [6] [%],inhibition [7] [%],inhibition [8] [%],inhibition [15] [%],inhibition [16] [%],inhibition [17] [%],SMILES,pIC50 [1],pIC50 [4],other results
13,40,7,58,60,65,,,,O=c1c2ccccc2sn1-c1nc(NC2CCCC2)c2nc[nH]c2n1,4.59,4.53,
,,,,,,98,100,98,CN1CCN(c2nc(C3=C(c4c[nH]c5ccccc45)C(=O)NC3=O)c3ccccc3n2)CC1 [SOTRASTAURIN],,,inhibition [10]: 80%; pIC50 [11]: 8.68; pIC50 [12]: 8.49; pIC50 [13]: 9.66; inhibition [14]: 92%; inhibition [18]: 76%; inhibition [19]: 76%
81,85,7,69,97,92,,,,O=c1c2ccccc2sn1-c1nc(NC2CCSC2)c2nc[nH]c2n1 (configuration not stated),4.91,4.99,
